Data: ChEMBL document CHEMBL6114988, “Design, synthesis and biological evaluation of dual CDK9/PARP inhibitors for the treatment of cancer” (Eur J Med Chem, 2025)

What was measured:
[1] = biological target: Cyclin-dependent kinase 9 (Homo sapiens, UniProt P50750)
Description: Inhibition of CDK9 (unknown origin) using lipid substrate incubated for 40 mins in presence of ATP by kinase-Glo plus luminescence assay

[2] = biological target: Poly [ADP-ribose] polymerase 1 (Homo sapiens, UniProt P09874); assay: Inhibition of PARP1 (unknown origin) incubated for 1 hr by ELISA
HeLa = assay: cells; settings: Homo sapiens, 48 h
Description: Antiproliferative activity against human HeLa cells assessed as inhibition of cell proliferation incubated for 48 hrs by CCK-8 assay

MDA-MB-231 [3] = assay: Induction of cell cycle arrest in human MDA-MB-231 cells assessed as accumulation of cells at G2/M phase at 10 uM incubated for 24 hrs by PI staining based flow cytometric analysis (reference value: 11.3%); type: functional
HCT-116 = assay: cells; settings: Homo sapiens, HCT-116, 48 h
Description: Antiproliferative activity against human HCT-116 cells assessed as inhibition of cell proliferation incubated for 48 hrs by CCK-8 assay

MDA-MB-231 [4] = assay: Induction of apoptosis in human MDA-MB-231 cells assessed as late apoptotic cell at 10 uM incubated for 24 hrs by Annexin V-FITC/PI staining based analysis (reference value: 2.61 %); type: functional
MDA-MB-231 [5] = assay: Induction of apoptosis in human MDA-MB-231 cells assessed as early apoptotic cell at 1 uM incubated for 24 hrs by Annexin V-FITC/PI staining based analysis (reference value: 0.96 %); type: functional
[6] = Metabolic stability in artificial gastric fluid assessed as parent compound remaining at 1 mg/ml incubated for 8 hrs by HPLC analysis; type: ADME; settings: read-out: Stability
MDA-MB-231 [7] = assay: cells; settings: Homo sapiens, MDA-MB-231, 48 h
Description: Antiproliferative activity against human MDA-MB-231 cells assessed as inhibition of cell proliferation incubated for 48 hrs by CCK-8 assay

MCF7 = assay: cells; settings: Homo sapiens, MCF7, 48 h
Description: Antiproliferative activity against human MCF7 cells assessed as inhibition of cell proliferation incubated for 48 hrs by CCK-8 assay

[8] = Metabolic stability in artificial intestinal fluid assessed as parent compound remaining at 1 mg/ml incubated for 8 hrs by HPLC analysis; type: ADME; settings: read-out: Stability
[9] = Metabolic stability in plasma assessed as parent compound remaining incubated for 3 hrs by HPLC analysis; type: ADME, cell-free; settings: read-out: Stability
[10] = Metabolic stability in rat liver microsomes assessed as half life at 1 mg/ml incubated for 60 min in presence of NADPH by HPLC analysis; type: ADME, Microsome
MDA-MB-231 [11] = assay: Induction of apoptosis in human MDA-MB-231 cells assessed as early apoptotic cell at 10 uM incubated for 24 hrs by Annexin V-FITC/PI staining based analysis (reference value: 0.96 %); type: functional
MDA-MB-231 [12] = assay: Induction of apoptosis in human MDA-MB-231 cells assessed as necrotic cell at 10 uM incubated for 24 hrs by Annexin V-FITC/PI staining based analysis (reference value: 0.10 %); type: functional
MDA-MB-231 [13] = assay: Induction of apoptosis in human MDA-MB-231 cells assessed as late apoptotic cell at 1 uM incubated for 24 hrs by Annexin V-FITC/PI staining based analysis (reference value: 2.61 %); type: functional
MDA-MB-231 [14] = assay: Induction of apoptosis in human MDA-MB-231 cells assessed as viable cell at 10 uM incubated for 24 hrs by Annexin V-FITC/PI staining based analysis (reference value: 96.3 %); type: functional
MDA-MB-231 [15] = assay: Induction of apoptosis in human MDA-MB-231 cells assessed as viable cell at 0.2 uM incubated for 24 hrs by Annexin V-FITC/PI staining based analysis (reference value: 96.3 %); type: functional
MDA-MB-231 [16] = assay: Induction of cell cycle arrest in human MDA-MB-231 cells assessed as accumulation of cells at G1 phase at 1 uM incubated for 24 hrs by PI staining based flow cytometric analysis (reference value: 58.1%); type: functional
MDA-MB-231 [17] = assay: Induction of cell cycle arrest in human MDA-MB-231 cells assessed as accumulation of cells at G1 phase at 0.2 uM incubated for 24 hrs by PI staining based flow cytometric analysis (reference value: 58.1%); type: functional
MDA-MB-231 [18] = assay: Induction of cell cycle arrest in human MDA-MB-231 cells assessed as accumulation of cells at S phase at 10 uM incubated for 24 hrs by PI staining based flow cytometric analysis (reference value: 29.2%); type: functional
MDA-MB-231 [19] = assay: Induction of apoptosis in human MDA-MB-231 cells assessed as late apoptotic cell at 0.2 uM incubated for 24 hrs by Annexin V-FITC/PI staining based analysis (reference value: 2.61 %); type: functional
MDA-MB-231 [20] = assay: Induction of cell cycle arrest in human MDA-MB-231 cells assessed as accumulation of cells at S phase at 1 uM incubated for 24 hrs by PI staining based flow cytometric analysis (reference value: 29.2%); type: functional
MOLM-13 = assay: Antiproliferative activity against human MOLM-13 cells assessed as inhibition of cell proliferation incubated for 48 hrs by CCK-8 assay; type: functional, cell-based; settings: MOLM-13, 48 h
MDA-MB-231 [21] = assay: Induction of cell cycle arrest in human MDA-MB-231 cells assessed as accumulation of cells at G2/M phase at 0.2 uM incubated for 24 hrs by PI staining based flow cytometric analysis (reference value: 11.3%); type: functional
MDA-MB-231 [22] = assay: Induction of apoptosis in human MDA-MB-231 cells assessed as necrotic cell at 1 uM incubated for 24 hrs by Annexin V-FITC/PI staining based analysis (reference value: 0.10 %); type: functional
MDA-MB-231 [23] = assay: Induction of cell cycle arrest in human MDA-MB-231 cells assessed as accumulation of cells at S phase at 0.2 uM incubated for 24 hrs by PI staining based flow cytometric analysis (reference value: 29.2%); type: functional
MDA-MB-231 [24] = assay: Induction of apoptosis in human MDA-MB-231 cells assessed as necrotic cell at 0.2 uM incubated for 24 hrs by Annexin V-FITC/PI staining based analysis (reference value: 0.10 %); type: functional
MV4-11 = assay: Antiproliferative activity against human MV4-11 cells assessed as inhibition of cell proliferation incubated for 48 hrs by CCK-8 assay; type: functional, cell-based; settings: MV4-11, 48 h
MDA-MB-231 [25] = assay: Induction of cell cycle arrest in human MDA-MB-231 cells assessed as accumulation of cells at G2/M phase at 1 uM incubated for 24 hrs by PI staining based flow cytometric analysis (reference value: 11.3%); type: functional
MDA-MB-231 [26] = assay: Induction of cell cycle arrest in human MDA-MB-231 cells assessed as accumulation of cells at G1 phase at 10 uM incubated for 24 hrs by PI staining based flow cytometric analysis (reference value: 58.1%); type: functional
MDA-MB-231 [27] = assay: Induction of apoptosis in human MDA-MB-231 cells assessed as early apoptotic cell at 0.2 uM incubated for 24 hrs by Annexin V-FITC/PI staining based analysis (reference value: 0.96 %); type: functional
MDA-MB-231 [28] = assay: Induction of apoptosis in human MDA-MB-231 cells assessed as viable cell at 1 uM incubated for 24 hrs by Annexin V-FITC/PI staining based analysis (reference value: 96.3 %); type: functional
MDA-MB-231 [29] = assay: Induction of apoptosis in human MDA-MB-231 cells assessed as necrotic cell at 2 uM incubated for 24 hrs by Annexin V-FITC/PI staining based analysis (reference value: 0.10 %); type: functional
MDA-MB-231 [30] = assay: Induction of apoptosis in human MDA-MB-231 cells assessed as viable cell at 2 uM incubated for 24 hrs by Annexin V-FITC/PI staining based analysis (reference value: 96.3 %); type: functional
MDA-MB-231 [31] = assay: Induction of cell cycle arrest in human MDA-MB-231 cells assessed as accumulation of cells at S phase at 2 uM incubated for 24 hrs by PI staining based flow cytometric analysis (reference value: 29.2%); type: functional
MDA-MB-231 [32] = assay: Induction of cell cycle arrest in human MDA-MB-231 cells assessed as accumulation of cells at G1 phase at 2 uM incubated for 24 hrs by PI staining based flow cytometric analysis (reference value: 58.1%); type: functional
MDA-MB-231 [33] = assay: Induction of cell cycle arrest in human MDA-MB-231 cells assessed as accumulation of cells at G2/M phase at 2 uM incubated for 24 hrs by PI staining based flow cytometric analysis (reference value: 11.3%); type: functional
MDA-MB-231 [34] = assay: Induction of apoptosis in human MDA-MB-231 cells assessed as early apoptotic cell at 2 uM incubated for 24 hrs by Annexin V-FITC/PI staining based analysis (reference value: 0.96 %); type: functional
MDA-MB-231 [35] = assay: Induction of apoptosis in human MDA-MB-231 cells assessed as late apoptotic cell at 2 uM incubated for 24 hrs by Annexin V-FITC/PI staining based analysis (reference value: 2.61 %); type: functional

Chain of Poly [ADP-ribose] polymerase 1 (P09874 whole entry): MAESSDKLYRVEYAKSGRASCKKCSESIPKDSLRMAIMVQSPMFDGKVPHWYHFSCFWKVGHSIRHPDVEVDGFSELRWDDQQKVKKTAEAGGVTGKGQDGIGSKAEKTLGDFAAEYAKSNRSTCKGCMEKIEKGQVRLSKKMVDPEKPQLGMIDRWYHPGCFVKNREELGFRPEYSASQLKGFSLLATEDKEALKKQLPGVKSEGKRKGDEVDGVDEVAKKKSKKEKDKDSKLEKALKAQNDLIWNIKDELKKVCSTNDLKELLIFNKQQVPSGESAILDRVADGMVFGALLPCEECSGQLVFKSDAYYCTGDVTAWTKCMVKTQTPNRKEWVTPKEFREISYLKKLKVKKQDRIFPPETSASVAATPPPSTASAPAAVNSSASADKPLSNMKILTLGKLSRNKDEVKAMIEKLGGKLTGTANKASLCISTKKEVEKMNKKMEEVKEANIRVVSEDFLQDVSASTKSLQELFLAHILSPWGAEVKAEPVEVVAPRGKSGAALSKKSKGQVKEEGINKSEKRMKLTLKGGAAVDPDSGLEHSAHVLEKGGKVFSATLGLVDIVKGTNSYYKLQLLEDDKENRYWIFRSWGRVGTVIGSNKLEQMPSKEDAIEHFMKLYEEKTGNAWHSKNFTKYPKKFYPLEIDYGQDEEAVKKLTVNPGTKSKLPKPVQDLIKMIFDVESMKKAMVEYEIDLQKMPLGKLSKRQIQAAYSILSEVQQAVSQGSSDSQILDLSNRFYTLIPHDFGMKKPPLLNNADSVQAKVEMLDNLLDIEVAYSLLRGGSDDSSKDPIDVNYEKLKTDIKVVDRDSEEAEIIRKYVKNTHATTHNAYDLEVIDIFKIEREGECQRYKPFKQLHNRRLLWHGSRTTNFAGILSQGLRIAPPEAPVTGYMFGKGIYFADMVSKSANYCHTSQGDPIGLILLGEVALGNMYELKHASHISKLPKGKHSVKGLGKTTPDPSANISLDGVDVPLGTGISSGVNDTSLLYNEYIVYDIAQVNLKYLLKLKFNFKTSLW
Chain of Cyclin-dependent kinase 9 (P50750 whole entry): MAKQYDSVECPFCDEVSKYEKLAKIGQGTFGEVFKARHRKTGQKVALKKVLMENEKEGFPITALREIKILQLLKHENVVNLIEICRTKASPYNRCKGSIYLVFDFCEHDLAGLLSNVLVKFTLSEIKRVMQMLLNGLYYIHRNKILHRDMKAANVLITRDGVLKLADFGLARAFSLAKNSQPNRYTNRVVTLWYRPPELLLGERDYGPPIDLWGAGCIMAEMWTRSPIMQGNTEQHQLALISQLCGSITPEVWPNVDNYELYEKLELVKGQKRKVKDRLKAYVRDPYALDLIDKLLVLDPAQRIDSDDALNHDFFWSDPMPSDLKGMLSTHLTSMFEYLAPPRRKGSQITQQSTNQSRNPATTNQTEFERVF

## COc1cccc(F)c1-c1cc(Nc2cc(CN3CCN(C(=O)c4cc(Cc5n[nH]c(=O)c6ccccc56)ccc4F)CC3)ccn2)ncc1F
[1]
  IC50: 61 nM
[2]
  IC50: 16 nM

## CCOc1cc(F)ccc1-c1cc(Nc2cc(CN3CCN(C(=O)c4cc(Cc5n[nH]c(=O)c6ccccc56)ccc4F)CC3)ccn2)ncn1
HeLa
  IC50: 250 nM
MDA-MB-231 [3]
  Activity: 29.1%
HCT-116
  IC50: 130 nM
MDA-MB-231 [4]
  Activity: 8.01%
MDA-MB-231 [5]
  Activity: 7.87%
[6]
  remaining at 8 h, 1 mg/ml: 94.1%
MDA-MB-231 [7]
  IC50: 440 nM
MCF7
  IC50: 670 nM
[8]
  remaining at 8 h, 1 mg/ml: 96.7%
[9]
  remaining at 3 h: 94.6%
[1]
  IC50: 15 nM
[10]
  half-life at 1 mg/ml: 2.44 h
MDA-MB-231 [11]
  Activity: 14.8%
MDA-MB-231 [12]
  Activity: 1.07%
MDA-MB-231 [13]
  Activity: 7.54%
MDA-MB-231 [14]
  Activity: 76.1%
MDA-MB-231 [15]
  Activity: 94.9%
MDA-MB-231 [16]
  Activity: 34.8%
MDA-MB-231 [17]
  Activity: 33.1%
MDA-MB-231 [18]
  Activity: 45.2%
[2]
  IC50: 6 nM
MDA-MB-231 [19]
  Activity: 2.67%
MDA-MB-231 [20]
  Activity: 31.1%
MOLM-13
  IC50: 690 nM
MDA-MB-231 [21]
  Activity: 27.9%
MDA-MB-231 [22]
  Activity: 1.78%
MDA-MB-231 [23]
  Activity: 40%
MDA-MB-231 [24]
  Activity: 0.81%
MV4-11
  IC50: 3830 nM
MDA-MB-231 [25]
  Activity: 36.4%
MDA-MB-231 [26]
  Activity: 25.3%
MDA-MB-231 [27]
  Activity: 1.64%
MDA-MB-231 [28]
  Activity: 82.8%

## O=C(c1cc(Cc2n[nH]c(=O)c3ccccc23)ccc1F)N1CCN(Cc2ccnc(Nc3cc(-c4ccc(F)c5ccoc45)c(F)cn3)c2)CC1
[1]
  IC50: 54 nM
[2]
  IC50: 118 nM

## COc1ccc(-c2cc(Nc3cc(CN4CCN(C(=O)c5cc(Cc6n[nH]c(=O)c7ccccc67)ccc5F)CC4)ccn3)ncc2F)c(OC)c1
[1]
  IC50: 31 nM
[2]
  IC50: 30 nM

## COc1cc(F)ccc1-c1cc(Nc2cc(CS(C)(=N)=O)ccn2)ncc1F (centres undefined) [ENITOCICLIB]
HeLa
  IC50: 200 nM
HCT-116
  IC50: 180 nM
MDA-MB-231 [5]
  Activity: 6.48%
[6]
  remaining at 8 h, 1 mg/ml: 101%
MDA-MB-231 [7]
  IC50: 270 nM
MCF7
  IC50: 50 nM
[8]
  remaining at 8 h, 1 mg/ml: 97.4%
[9]
  remaining at 3 h: 96%
[10]
  half-life at 1 mg/ml: 5.78 h
MDA-MB-231 [13]
  Activity: 7.66%
MDA-MB-231 [16]
  Activity: 54.9%
MDA-MB-231 [20]
  Activity: 29.1%
MOLM-13
  IC50: 80 nM
MDA-MB-231 [22]
  Activity: 3.8%
MV4-11
  IC50: 110 nM
MDA-MB-231 [25]
  Activity: 16.5%
MDA-MB-231 [28]
  Activity: 82.1%

## O=C(c1cc(Cc2n[nH]c(=O)c3ccccc23)ccc1F)N1CCN(C(=O)C2CC2)CC1 [OLAPARIB]
HCT-116
  IC50: 200000 nM
MDA-MB-231 [29]
  Activity: 0.48%
MDA-MB-231 [30]
  Activity: 96.8%
[6]
  remaining at 8 h, 1 mg/ml: 99.4%
MDA-MB-231 [7]
  IC50: > 50000 nM
MCF7
  IC50: 195000 nM
[8]
  remaining at 8 h, 1 mg/ml: 100%
[9]
  remaining at 3 h: 99.4%
[10]
  half-life at 1 mg/ml: 1.86 h
MDA-MB-231 [31]
  Activity: 35.8%
MOLM-13
  IC50: 43100 nM
MDA-MB-231 [32]
  Activity: 48.7%
MDA-MB-231 [33]
  Activity: 14.1%
MV4-11
  IC50: 15200 nM
MDA-MB-231 [34]
  Activity: 0.59%
MDA-MB-231 [35]
  Activity: 2.13%

## CCOc1cc(F)ccc1-c1cc(Nc2cc(CN3CCN(C(=O)c4cc(Cc5n[nH]c(=O)c6ccccc56)ccc4F)CC3)ccn2)ncc1F
[1]
  IC50: 59 nM
[2]
  IC50: 32 nM
